Measured values reported in patent US20050148534A1, “Small molecule compositions and methods for increasing drug efficiency using compositions thereof” (priority 2003, published 2005).

Experiments:
[1] = target: T1, Human thymidine kinase 1 (TK1) (Homo sapiens, UniProt P04183); assay: Thymidine kinase coupled (kinetic) ATP depletion assay; format: biochemical; conditions: initial velocity relative to thymidine; 100 μM conjugate
T1 construct: His tag (from pET28b(+)) (N); made in house; host or cells: E. coli BL21-codon plus
T1 sequence (P04183 1-234): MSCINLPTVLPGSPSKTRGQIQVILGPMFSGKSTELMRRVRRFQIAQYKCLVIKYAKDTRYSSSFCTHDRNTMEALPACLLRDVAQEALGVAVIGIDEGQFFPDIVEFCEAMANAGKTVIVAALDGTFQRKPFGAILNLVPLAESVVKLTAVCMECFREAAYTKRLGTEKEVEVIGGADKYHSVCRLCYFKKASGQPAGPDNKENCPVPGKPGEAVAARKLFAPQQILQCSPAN
Protocol: Thymidine kinase, viral thymidine kinase, TK-1 deoxycytidine kinase, and deoxyguanosine kinase activities are determined by subjecting a first end of a linker used in synthesizing linker-substrate constructs to a first test. The first test may involve observing ADP formation, an obligatory co-product of phospho group transfer from ATP which is catalyzed by the kinase to the C5′ hydroxyl group or its equivalent in the nucleoside or nucleoside analog. Formation of ADP is followed by a coupled enzyme assay well known in the art. ADP, formed from kinase phosphorylation, is used by pyruvate kinase to generate pyruvate from phosphoenolpyruvate which in turn is converted to lactate by lactate dehydrogenase. The lactate results in the consumption of NADH which is followed spectrophotometrically. The rate of nucleoside phosphorylation is then directly related to the rate of decrease in the observed NADH signal.
TK1 was amplified using PCR with forward primer 5′-[…]-3′ and reverse primer 5′-[…]-3′. The PCR product was digested with Nde I and Hind III. An N-terminal His-tagged TK1 construct, TK1/pET28b(+), was generated by subcloning TK1 into the Nde I and Hind III sites of prokaryotic expression vector pET28b (+) (Novagen, San Diego, Calif.). TK1 was expressed from TK1/pET28b(+) using E. coli strain BL21-codon plus (Stratagene, San Diego, Calif.) and purified by Ni column chromatography.
A coupled (kinetic) ATP depletion assay was developed to measure thymidine kinase activity. The reaction contained 100 mM Tris HCl, pH 7.5, 20 mM MgCl2, 100 mM KCl, 0.4 mM PEP, 0.2 mM NADH, Pyruvate Kinase (0.7 units)/Lactate Dehydrogenase (1.0 unit) (Sigma #PO294), 2.5-10 μg Thymidine Kinase, 100 μM thymidine or thymidine-drug conjugate in a volume of 75 μl. ATP (5 mM in 25 μl H2O) was added to initiate the reaction and the velocity of ATP depletion was monitored at 340 nm continuously for 15 minutes.

[2] = tested on: tubulin; assay: Fluorescence-based microtubule polymerization assay (MPA); format: biochemical; conditions: mean percentage of paclitaxel or vinblastine activity; 0.75-10 micromolar
Source text: Drug-linker constructs may further be screened using functional assays predictive of biological activity. […] Tubulin assembly or inhibition thereof may be monitored by fluorescence using the CytoDYNAMIX Screen™ 10 kit available from Cytoskeleton (1830 S. Acoma St., Denver, Colo.). […] Emission is monitored at 405 nm with excitation at 360 nm. […] Tubulin assembly or inhibition may also be monitored by light scattering which is approximated by the apparent absorption at 350 nm. For paclitaxel drug conjugates BSA is employed to prevent aggregation and glycerol, which is a tubulin polymerization enhancer, is omitted from the kit to increase the signal to noise ratio.
The assay kit (#BK011) was purchased from Cytoskeleton (Denver, Colo.). The assays were carried out according to the manufacturer's instructions, except that 1 mg/ml BSA (Sigma #A3059) was included in all assays. […] Parent drugs and conjugates were tested at 0.75, 1.5, 3 and 10 micromolar final concentration and results represent a comparison of conjugate and parent drug curves obtained from the linear range of the dose responses.

[3] = target: T2, deoxyguanosine kinase (dGK) (Homo sapiens, UniProt Q16854); conditions: substrate activity; literature (Johansson et al.); cited from earlier work
T2 sequence (Q16854 40-277): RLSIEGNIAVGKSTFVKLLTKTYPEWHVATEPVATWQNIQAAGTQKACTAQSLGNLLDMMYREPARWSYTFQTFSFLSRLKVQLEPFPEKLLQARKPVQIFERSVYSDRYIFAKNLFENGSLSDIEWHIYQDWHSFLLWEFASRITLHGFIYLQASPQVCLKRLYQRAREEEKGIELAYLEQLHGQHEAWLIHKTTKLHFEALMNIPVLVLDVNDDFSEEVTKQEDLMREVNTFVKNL

[4] = target: deoxycytidine kinase (dCK) (Homo sapiens, UniProt P27707); conditions: substrate activity; literature (Johansson et al.; Eriksson et al.; Wang et al.), source per Table 3; cited from earlier work
[5] = target: T3, TK2 (Homo sapiens, UniProt O00142); parameters: unit not given here; conditions: substrate activity; literature (Johansson et al.; Eriksson et al.; Wang et al.), source per Table 3; cited from earlier work
T3 sequence (O00142 34-265): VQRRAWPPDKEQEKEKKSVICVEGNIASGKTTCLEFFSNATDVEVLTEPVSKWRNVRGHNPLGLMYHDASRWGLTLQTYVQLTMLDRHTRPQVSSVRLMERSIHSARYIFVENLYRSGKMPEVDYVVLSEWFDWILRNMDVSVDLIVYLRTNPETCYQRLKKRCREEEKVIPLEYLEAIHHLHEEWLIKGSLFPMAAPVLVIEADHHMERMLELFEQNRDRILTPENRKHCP

[6] = target: T4, TK1 (Homo sapiens, UniProt P04183); conditions: substrate activity; literature (Johansson et al.; Eriksson et al., BBCR 1991; 176, 586), source per Table 3; cited from earlier work
T4 sequence (P04183 1-234): T1 sequence (P04183 1-234)

Sequence of deoxycytidine kinase (dCK) (P27707 whole entry, species assumed): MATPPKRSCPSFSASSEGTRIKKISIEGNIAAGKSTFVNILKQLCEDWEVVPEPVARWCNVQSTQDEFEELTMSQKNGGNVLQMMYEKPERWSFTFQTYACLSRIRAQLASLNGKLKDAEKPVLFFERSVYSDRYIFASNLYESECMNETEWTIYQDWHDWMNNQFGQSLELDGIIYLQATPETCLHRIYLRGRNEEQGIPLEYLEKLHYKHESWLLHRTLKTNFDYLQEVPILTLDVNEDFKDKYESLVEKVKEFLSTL

CC[C@]1(O)C[C@@H]2CN(CCc3c([nH]c4ccccc34)[C@@](C(=O)OC)(c3cc4c(cc3OC)N(C)[C@H]3[C@@](O)(C(=O)NCCCCCCn5c(=O)c(C)cn([C@H]6C[C@H](O)[C@@H](CO)O6)c5=O)[C@H](O)[C@]5(CC)C=CCN6CC[C@]43[C@@H]65)C2)C1 [VBL-3Am-ALK(6)-N3-THY]
Ave. TK1 Kinase Act. [1]: A (A<20) | Ave. MPA Act [2]: B (B=60-100)

CC[C@]1(O)C[C@@H]2CN(CCc3c([nH]c4ccccc34)[C@@](C(=O)OC)(c3cc4c(cc3OC)N(C)[C@H]3[C@@](O)(C(=O)NCCCCn5c(=O)c(C)cn([C@H]6C[C@H](O)[C@@H](CO)O6)c5=O)[C@H](O)[C@]5(CC)C=CCN6CC[C@]43[C@@H]65)C2)C1 [VBL-3Am-ALK(4)-N3-THY]
Ave. TK1 Kinase Act. [1]: B (B=20-40) | Ave. MPA Act [2]: C (C>100)

Nc1ncnc2c1ncn2C1CC(O)C(CO)O1 (stereo not shown) [dado]
dGK [3]: 100

O=c1[nH]cnc2c1ncn2C1OC(CO)C(O)C1O (stereo not shown)
dGK [3]: 290

CC(=O)O[C@@]12CO[C@@H]1C[C@H](O)[C@@]1(C)C(=O)[C@H](OC(=O)NCCOCCOCCOCCn3c(=O)c(C)cn([C@@H]4C[C@H](O)[C@@H](CO)O4)c3=O)C3=C(C)[C@@H](OC(=O)[C@H](O)[C@@H](NC(=O)c4ccccc4)c4ccccc4)C[C@@](O)([C@@H](OC(=O)c4ccccc4)[C@H]21)C3(C)C [PXL-10Ca-PEG(11)-N3-αTHY]
Ave. TK1 Kinase Act. [1]: A (A<20) | Ave. MPA Act [2]: B (B=60-100)

Nc1nc2c(ncn2[C@@H]2O[C@H](CO)[C@@H](O)[C@@H]2O)c(=O)[nH]1 [AraG]
dGK [3]: 180 | dCK [4]: 6

Nc1ncnc2c1ncn2[C@@H]1O[C@H](CO)[C@@H](O)[C@@H]1O [AraA]
dGK [3]: 15 | dCK [4]: 50

O=c1[nH]cnc2c1ncn2[C@H]1C[C@H](O)[C@@H](CO)O1 [dino]
dGK [3]: 100 | dCK [4]: 120

CC(=O)O[C@@]12CO[C@@H]1C[C@H](O)[C@@]1(C)C(=O)[C@H](OC(=O)NCCOCCn3c(=O)c(C)cn([C@@H]4C[C@H](O)[C@@H](CO)O4)c3=O)C3=C(C)[C@@H](OC(=O)[C@H](O)[C@@H](NC(=O)c4ccccc4)c4ccccc4)C[C@@](O)([C@@H](OC(=O)c4ccccc4)[C@H]21)C3(C)C [PXL-10Ca-PEG(5)-N3-αTHY]
Ave. TK1 Kinase Act. [1]: A (A<20) | Ave. MPA Act [2]: B (B=60-100)

Nc1nc2c(ncn2[C@H]2C[C@H](O)[C@@H](CO)O2)c(=O)[nH]1 [dGuo]
dGK [3]: 50 | dCK [4]: 300

CC[C@]1(O)C[C@@H]2CN(CCc3c([nH]c4ccccc34)[C@@](C(=O)OC)(c3cc4c(cc3OC)N(C)[C@H]3[C@@](O)(C(=O)NCCOCCn5c(=O)c(C)cn([C@H]6C[C@H](O)[C@@H](CO)O6)c5=O)[C@H](O)[C@]5(CC)C=CCN6CC[C@]43[C@@H]65)C2)C1 [VBL-3Am-PEG(5)-N3-THY]
Ave. TK1 Kinase Act. [1]: A (A<20) | Ave. MPA Act [2]: C (C>100)

CC[C@]1(O)C[C@@H]2CN(CCc3c([nH]c4ccccc34)[C@@](C(=O)OC)(c3cc4c(cc3OC)N(C)[C@H]3[C@@](O)(C(=O)NCCCn5c(=O)c(C)cn([C@H]6C[C@H](O)[C@@H](CO)O6)c5=O)[C@H](O)[C@]5(CC)C=CCN6CC[C@]43[C@@H]65)C2)C1 [VBL-3Am-ALK(3)-N3-THY]
Ave. TK1 Kinase Act. [1]: A (A<20) | Ave. MPA Act [2]: C (C>100)

Nc1nc2c(ncn2C2CC(O)C(CO)C2)c(=O)[nH]1 (stereo not shown) [X = CH2, R3 = OH, R5 = H, B = Guanine]
dGK [3]: 70

COc1cccc2c1C(=O)c1c(O)c3c(c(O)c1C2=O)C[C@@](O)(C(=O)CO)C[C@@H]3O[C@H]1C[C@H](NCCCN2C(=O)CC(SCCC(=O)NCCOCCOCCOCCn3c(=O)c(C)cn([C@H]4C[C@H](O)[C@@H](CO)O4)c3=O)C2=O)[C@H](O)[C@H](C)O1.O=C(O)C(F)(F)F (stereo partly shown) [DOX-3′Alk-[MALaPEG](22)-N3-THY]
Ave. TK1 Kinase Act. [1]: A (A<20)

Nc1ncnc2c1ccn2[C@H]1C[C@H](O)[C@@H](CO)O1
dGK [3]: 100 | dCK [4]: 50

Nc1nc(Cl)nc2c1ncn2[C@H]1C[C@H](O)[C@@H](CO)O1 [X = O, R3 = OH, R5 = H, B = 2-Cl-Adenine]
dGK [3]: 180

CC[C@]1(O)C[C@@H]2CN(CCc3c([nH]c4ccccc34)[C@@](C(=O)OC)(c3cc4c(cc3OC)N(C)[C@H]3[C@@](O)(C(=O)NCCOCCOCCOCCn5c(=O)c(C)cn([C@H]6C[C@H](O)[C@@H](CO)O6)c5=O)[C@H](O)[C@]5(CC)C=CCN6CC[C@]43[C@@H]65)C2)C1 [VBL-3Am-PEG(11)-N3-THY]
Ave. TK1 Kinase Act. [1]: B (B=20-40) | Ave. MPA Act [2]: A (A<60)

CC(=O)O[C@@]12CO[C@@H]1C[C@H](O)[C@@]1(C)C(=O)[C@H](OC(=O)NCCCCCCn3c(=O)c(C)cn([C@@H]4C[C@H](O)[C@@H](CO)O4)c3=O)C3=C(C)[C@@H](OC(=O)[C@H](O)[C@@H](NC(=O)c4ccccc4)c4ccccc4)C[C@@](O)([C@@H](OC(=O)c4ccccc4)[C@H]21)C3(C)C [PXL-10Ca-ALK(6)-N3-αTHY]
Ave. TK1 Kinase Act. [1]: A (A<20) | Ave. MPA Act [2]: B (B=60-100)

O=c1ccn([C@H]2CC[C@@H](CO)O2)c(=O)[nH]1 [R2 = H, R4 = H, R3 = H (ddU), ddU]
TK2 [5]: 2 | TK1 [6]: 10 | dCK [4]: <1
